# Source: PubChem BioAssay (NCI)
#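 In this assay, cells in 96-well plates receive the compound at five concentrations for 48 hours. Endpoints are linearly interpolated between the surrounding concentrations. TGI: concentration producing complete growth inhibition.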
# Tests used:
# Experiment in all cases: NCI anticancer screen, dose series, 48 h
# 786-0 renal = tested on: 786-0 renal
# A549 NSCLC = tested on: A549 NSCLC
# ACHN renal = tested on: ACHN renal
# BT-549 breast = tested on: BT-549 breast
# CAKI-1 renal = tested on: CAKI-1 renal
# CCRF-CEM leukemia = tested on: CCRF-CEM leukemia
# COLO 205 colon = tested on: COLO 205 colon
# DU-145 prostate = tested on: DU-145 prostate
# EKVX NSCLC = tested on: EKVX NSCLC
# HCC-2998 colon = tested on: HCC-2998 colon
# HCT-116 colon = tested on: HCT-116 colon
# HCT-15 colon = tested on: HCT-15 colon
# HL-60(TB) leukemia = tested on: HL-60(TB) leukemia
# HOP-62 NSCLC = tested on: HOP-62 NSCLC
# HOP-92 NSCLC = tested on: HOP-92 NSCLC
# HS 578T breast = tested on: HS 578T breast
# HT29 colon = tested on: HT29 colon
# IGROV1 ovarian = tested on: IGROV1 ovarian
# K-562 leukemia = tested on: K-562 leukemia
# KM12 colon = tested on: KM12 colon
# LOX IMVI melanoma = tested on: LOX IMVI melanoma
# M14 melanoma = tested on: M14 melanoma
# MALME-3M melanoma = tested on: MALME-3M melanoma
# MCF7 breast = tested on: MCF7 breast
# MDA-MB-231 breast = tested on: MDA-MB-231 breast
# MDA-MB-435 = tested on: MDA-MB-435
# MDA-N = tested on: MDA-N
# MOLT-4 leukemia = tested on: MOLT-4 leukemia
# NCI-H226 lung = tested on: NCI-H226 lung
# NCI-H23 lung = tested on: NCI-H23 lung
# NCI-H460 lung = tested on: NCI-H460 lung
# NCI-H522 lung = tested on: NCI-H522 lung
# NCI/ADR-RES ovarian = tested on: NCI/ADR-RES ovarian
# OVCAR-3 ovarian = tested on: OVCAR-3 ovarian
# OVCAR-4 ovarian = tested on: OVCAR-4 ovarian
# OVCAR-5 ovarian = tested on: OVCAR-5 ovarian
# OVCAR-8 ovarian = tested on: OVCAR-8 ovarian
# PC-3 prostate = tested on: PC-3 prostate
# RPMI-8226 leukemia = tested on: RPMI-8226 leukemia
# SF-268 CNS = tested on: SF-268 CNS
# SF-295 CNS = tested on: SF-295 CNS
# SF-539 CNS = tested on: SF-539 CNS
# SK-MEL-2 melanoma = tested on: SK-MEL-2 melanoma
# SK-MEL-28 melanoma = tested on: SK-MEL-28 melanoma
# SK-MEL-5 melanoma = tested on: SK-MEL-5 melanoma
# SK-OV-3 ovarian = tested on: SK-OV-3 ovarian
# SN12C renal = tested on: SN12C renal
# SNB-19 CNS = tested on: SNB-19 CNS
# SNB-75 CNS = tested on: SNB-75 CNS
# SR leukemia = tested on: SR leukemia
# SW-620 colon = tested on: SW-620 colon
# T-47D breast = tested on: T-47D breast
# TK-10 renal = tested on: TK-10 renal
# U251 CNS = tested on: U251 CNS
# UACC-257 melanoma = tested on: UACC-257 melanoma
# UACC-62 melanoma = tested on: UACC-62 melanoma
# UO-31 renal = tested on: UO-31 renal
# A498 renal = tested on: A498 renal
# RXF 393 renal = tested on: RXF 393 renal
structure (smiles),measurement,setting,value
Oc1ccccc1-n1nc2ccc3nonc3c2n1,TGI,786-0 renal,> 100 µM
same,TGI,A549 NSCLC,> 100 µM
same,TGI,ACHN renal,> 100 µM
same,TGI,BT-549 breast,> 100 µM
same,TGI,CAKI-1 renal,> 100 µM
same,TGI,CCRF-CEM leukemia,> 100 µM
same,TGI,COLO 205 colon,> 100 µM
same,TGI,DU-145 prostate,> 100 µM
same,TGI,EKVX NSCLC,> 100 µM
same,TGI,HCC-2998 colon,> 100 µM
same,TGI,HCT-116 colon,> 100 µM
same,TGI,HCT-15 colon,> 100 µM
same,TGI,HL-60(TB) leukemia,> 100 µM
same,TGI,HOP-62 NSCLC,> 100 µM
same,TGI,HOP-92 NSCLC,> 100 µM
same,TGI,HS 578T breast,> 100 µM
same,TGI,HT29 colon,> 100 µM
same,TGI,IGROV1 ovarian,> 100 µM
same,TGI,K-562 leukemia,> 100 µM
same,TGI,KM12 colon,> 100 µM
same,TGI,LOX IMVI melanoma,> 100 µM
same,TGI,M14 melanoma,> 100 µM
same,TGI,MALME-3M melanoma,> 100 µM
same,TGI,MCF7 breast,> 100 µM
same,TGI,MDA-MB-231 breast,> 100 µM
same,TGI,MDA-MB-435,> 100 µM
same,TGI,MDA-N,> 100 µM
same,TGI,MOLT-4 leukemia,> 100 µM
same,TGI,NCI-H226 lung,> 100 µM
same,TGI,NCI-H23 lung,> 100 µM
same,TGI,NCI-H460 lung,> 100 µM
same,TGI,NCI-H522 lung,> 100 µM
same,TGI,NCI/ADR-RES ovarian,> 100 µM
same,TGI,OVCAR-3 ovarian,> 100 µM
same,TGI,OVCAR-4 ovarian,> 100 µM
same,TGI,OVCAR-5 ovarian,> 100 µM
same,TGI,OVCAR-8 ovarian,> 100 µM
same,TGI,PC-3 prostate,> 100 µM
same,TGI,RPMI-8226 leukemia,> 100 µM
same,TGI,SF-268 CNS,> 100 µM
same,TGI,SF-295 CNS,> 100 µM
same,TGI,SF-539 CNS,> 100 µM
same,TGI,SK-MEL-2 melanoma,> 100 µM
same,TGI,SK-MEL-28 melanoma,> 100 µM
same,TGI,SK-MEL-5 melanoma,> 100 µM
same,TGI,SK-OV-3 ovarian,> 100 µM
same,TGI,SN12C renal,> 100 µM
same,TGI,SNB-19 CNS,> 100 µM
same,TGI,SNB-75 CNS,> 100 µM
same,TGI,SR leukemia,> 100 µM
same,TGI,SW-620 colon,> 100 µM
same,TGI,T-47D breast,> 100 µM
same,TGI,TK-10 renal,> 100 µM
same,TGI,U251 CNS,> 100 µM
same,TGI,UACC-257 melanoma,> 100 µM
same,TGI,UACC-62 melanoma,> 100 µM
same,TGI,UO-31 renal,> 100 µM
CCOC(=O)Oc1ccc2c(c1)c(=O)c1c(NCCCN(CC)CC)ccc3nnn2c31,TGI,786-0 renal,15.7 µM
same,TGI,A498 renal,23.2 µM
same,TGI,A549 NSCLC,16.9 µM
same,TGI,ACHN renal,15.8 µM
same,TGI,BT-549 breast,32 µM
same,TGI,CAKI-1 renal,9.75 µM
same,TGI,CCRF-CEM leukemia,6.88 µM
same,TGI,COLO 205 colon,25.1 µM
same,TGI,DU-145 prostate,17.4 µM
same,TGI,EKVX NSCLC,23 µM
same,TGI,HCC-2998 colon,21.8 µM
same,TGI,HCT-116 colon,15.8 µM
same,TGI,HCT-15 colon,21 µM
same,TGI,HOP-62 NSCLC,12.5 µM
same,TGI,HOP-92 NSCLC,24.6 µM
same,TGI,HS 578T breast,40.7 µM
same,TGI,HT29 colon,15.9 µM
same,TGI,IGROV1 ovarian,34.2 µM
same,TGI,K-562 leukemia,> 52.7 µM
same,TGI,KM12 colon,19.8 µM
same,TGI,LOX IMVI melanoma,12 µM
same,TGI,M14 melanoma,25.4 µM
same,TGI,MALME-3M melanoma,29.7 µM
same,TGI,MCF7 breast,15.7 µM
same,TGI,MDA-MB-231 breast,21.8 µM
same,TGI,MDA-MB-435,18.3 µM
same,TGI,MDA-N,20.6 µM
same,TGI,MOLT-4 leukemia,> 100 µM
same,TGI,NCI-H226 lung,19.8 µM
same,TGI,NCI-H23 lung,29.3 µM
same,TGI,NCI-H460 lung,15.2 µM
same,TGI,NCI-H522 lung,19.7 µM
same,TGI,NCI/ADR-RES ovarian,28.1 µM
same,TGI,OVCAR-3 ovarian,20 µM
same,TGI,OVCAR-4 ovarian,20.2 µM
same,TGI,OVCAR-5 ovarian,33.5 µM
same,TGI,OVCAR-8 ovarian,19.5 µM
same,TGI,PC-3 prostate,20.9 µM
same,TGI,RPMI-8226 leukemia,10.1 µM
same,TGI,RXF 393 renal,19.8 µM
same,TGI,SF-268 CNS,28.2 µM
same,TGI,SF-295 CNS,21.3 µM
same,TGI,SF-539 CNS,19 µM
same,TGI,SK-MEL-2 melanoma,30 µM
same,TGI,SK-MEL-28 melanoma,33.2 µM
same,TGI,SK-MEL-5 melanoma,23.2 µM
same,TGI,SK-OV-3 ovarian,23.4 µM
same,TGI,SN12C renal,19.1 µM
same,TGI,SNB-19 CNS,19.5 µM
same,TGI,SR leukemia,> 53 µM
same,TGI,SW-620 colon,16.2 µM
same,TGI,T-47D breast,31.1 µM
same,TGI,TK-10 renal,17.5 µM
same,TGI,U251 CNS,23.6 µM
same,TGI,UACC-257 melanoma,29.8 µM
same,TGI,UACC-62 melanoma,29 µM
same,TGI,UO-31 renal,15 µM
Nc1nc(NCCOCP(=O)(O)O)c(N)c(=O)[nH]1,TGI,786-0 renal,> 100 µM
same,TGI,A498 renal,> 100 µM
same,TGI,A549 NSCLC,> 100 µM
same,TGI,ACHN renal,> 100 µM
same,TGI,BT-549 breast,> 100 µM
same,TGI,CAKI-1 renal,> 100 µM
same,TGI,CCRF-CEM leukemia,> 100 µM
same,TGI,COLO 205 colon,> 100 µM
same,TGI,DU-145 prostate,> 100 µM
same,TGI,EKVX NSCLC,> 100 µM
same,TGI,HCC-2998 colon,> 100 µM
same,TGI,HCT-116 colon,> 100 µM
same,TGI,HCT-15 colon,> 100 µM
same,TGI,HL-60(TB) leukemia,> 100 µM
same,TGI,HOP-62 NSCLC,> 100 µM
same,TGI,HOP-92 NSCLC,> 100 µM
same,TGI,HS 578T breast,> 100 µM
same,TGI,HT29 colon,> 100 µM
same,TGI,IGROV1 ovarian,> 100 µM
same,TGI,K-562 leukemia,> 100 µM
same,TGI,KM12 colon,> 100 µM
same,TGI,LOX IMVI melanoma,> 100 µM
same,TGI,M14 melanoma,> 100 µM
same,TGI,MALME-3M melanoma,> 100 µM
same,TGI,MCF7 breast,> 100 µM
same,TGI,MDA-MB-231 breast,> 100 µM
same,TGI,MDA-MB-435,> 100 µM
same,TGI,MDA-N,> 100 µM
same,TGI,MOLT-4 leukemia,> 100 µM
same,TGI,NCI-H226 lung,> 100 µM
same,TGI,NCI-H23 lung,> 100 µM
same,TGI,NCI-H460 lung,> 100 µM
same,TGI,NCI/ADR-RES ovarian,> 100 µM
same,TGI,OVCAR-3 ovarian,> 100 µM
same,TGI,OVCAR-4 ovarian,> 100 µM
same,TGI,OVCAR-5 ovarian,> 100 µM
same,TGI,OVCAR-8 ovarian,> 100 µM
same,TGI,PC-3 prostate,> 100 µM
same,TGI,RPMI-8226 leukemia,> 100 µM
same,TGI,RXF 393 renal,> 100 µM
same,TGI,SF-268 CNS,> 100 µM
same,TGI,SF-295 CNS,> 100 µM
same,TGI,SF-539 CNS,> 100 µM
same,TGI,SK-MEL-2 melanoma,> 100 µM
same,TGI,SK-MEL-28 melanoma,> 100 µM
same,TGI,SK-MEL-5 melanoma,> 100 µM
same,TGI,SK-OV-3 ovarian,> 100 µM
same,TGI,SN12C renal,> 100 µM
same,TGI,SNB-19 CNS,> 100 µM
same,TGI,SNB-75 CNS,> 100 µM
same,TGI,SR leukemia,> 100 µM
same,TGI,SW-620 colon,> 100 µM
same,TGI,T-47D breast,> 100 µM
same,TGI,TK-10 renal,> 100 µM
same,TGI,U251 CNS,> 100 µM
same,TGI,UACC-257 melanoma,> 100 µM
same,TGI,UACC-62 melanoma,> 100 µM
same,TGI,UO-31 renal,> 100 µM
